Measured values taken from patent US20150018384A1, “TREATMENT FOR HIGH CHOLESTEROL” (FibroGen, Inc., priority 2012, published 2015).

Tested on: Cholesterol Biosynthesis Genes in the Mouse Liver
Assay: Microarray expression of cholesterol biosynthesis genes in mouse liver
Type: in vivo
Conditions: 10 mg/kg oral
Procedure: A number of PHI compounds were evaluated for their effect on the expression of cholesterol biosynthesis genes in mouse liver. […] Liver tissue was harvested and stored in RNALater (Life Technologies). Total RNA was isolated with Trizol (Life Technologies) and purified with RNEasy96 (Qiagen) according to the manufacturers' protocols. RNA concentration was measured by NanoDrop (Thermo), and quality was assessed by Bioanalyzer (Agilent).
Biotinylated microarray probe was prepared using the 3′IVT Express kit (Affymetrix) and hybridized to mouse 430A 2.0 arrays as recommended in the manufacturer's protocol. Arrays were stained, washed, and scanned using Affymetrix equipment and software. Three arrays were run for each treatment and time point, each representing the liver sample from one individual animal.
Animals were sacrificed 4 h or 8 h later. Each compound was tested in a separate animal study with separate controls. Liver tissue was harvested and stored in RNALater (Life Technologies). Total RNA was isolated with Trizol (Life Technologies) and purified with RNEasy96 (Qiagen) according to the manufacturers' protocols. RNA concentration was measured by NanoDrop (Thermo), and quality was assessed by Bioanalyzer (Agilent).
For microarray analysis, RNA from animals in each treatment group was pooled in pairs (n=3 pairs for 4 h vehicle, n=2 pairs for all other treatment groups, for a total of 13 arrays per compound study). This approach was used to improve the signal-to-noise ratio on microarrays. Biotinylated probe was prepared using the One-Cycle cDNA synthesis kit (Affymetrix) and hybridized to mouse 430A 2.0 arrays as recommended in the manufacturer's protocol. Arrays were stained, washed, and scanned using Affymetrix equipment and software.
Array quality was assessed with GeneChip Operating System and/or Command Console software (Affymetrix). CEL files were uploaded to GeneSpring 7.3.1 (Agilent) using GC-RMA baseline correction. Principal Components Analysis was used to identify and reject outlier arrays. Data are reported as fold-change compared to timepoint-matched vehicle controls from the same study. Values less than 1.0 indicate a reduction of RNA in the treated animal liver tissue.

SMILES | 3-hydroxy-3-methylglutaryl-Coenzyme A reductase (Hmgcr) RNA expression (4 h) | 3-hydroxy-3-methylglutaryl-Coenzyme A synthase 1 (Hmgcs1) RNA expression (4 h) | 7-dehydrocholesterol reductase (Dhcr7) RNA expression (4 h) | NAD(P) dependent steroid dehydrogenase-like (Nsdhl) RNA expression (4 h) | acetyl-Coenzyme A acetyltransferase 2 (Acat2) RNA expression (4 h) | cytochrome P450, family 51 (Cyp51) RNA expression (4 h) | farnesyl diphosphate farnesyl transferase 1 (Fdft1) RNA expression (4 h) | farnesyl diphosphate synthetase (Fdps) RNA expression (4 h) | isopentenyl-diphosphate delta isomerase (Idi1) RNA expression (4 h) | lanosterol synthase (Lss) RNA expression (4 h) | mevalonate (diphospho) decarboxylase (Mvd) RNA expression (4 h) | mevalonate kinase (Mvk) RNA expression (4 h) | phosphomevalonate kinase (Pmvk) RNA expression (4 h) | squalene epoxidase (Sqle) RNA expression (4 h) | sterol-C4-methyl oxidase-like (Sc4mol) RNA expression (4 h) | sterol-C5-desaturase (fungal ERG3, delta-5-desaturase) homolog (S. cerevisae) (Sc5d) RNA expression (4 h) | 3-hydroxy-3-methylglutaryl-Coenzyme A reductase (Hmgcr) RNA expression (8 h) | 3-hydroxy-3-methylglutaryl-Coenzyme A synthase 1 (Hmgcs1) RNA expression (8 h) | 7-dehydrocholesterol reductase (Dhcr7) RNA expression (8 h) | NAD(P) dependent steroid dehydrogenase-like (Nsdhl) RNA expression (8 h) | further results
Cc1cccc(C)c1Oc1ccc2c(O)c(C(=O)NCC(=O)O)nc(C#N)c2c1 [Compound I, {[1-Cyano-7-(2,6-dimethyl-phenoxy)-4-hydroxy-isoquinoline-3-carbonyl]-amino}-acetic acid] | 0.41 fold-change | 1.43 fold-change | 1.41 fold-change | 1.66 fold-change | 1.21 fold-change | 0.81 fold-change | 0.85 fold-change | 1.45 fold-change | 1.40 fold-change | 0.74 fold-change | 0.45 fold-change | 1.02 fold-change | 1.25 fold-change | 1.36 fold-change | 0.88 fold-change | 0.87 fold-change | 0.17 fold-change | 0.19 fold-change | 0.30 fold-change | 0.21 fold-change | acetyl-Coenzyme A acetyltransferase 2 (Acat2) RNA expression (8 h): 0.43 fold-change; cytochrome P450, family 51 (Cyp51) RNA expression (8 h): 0.12 fold-change; farnesyl diphosphate farnesyl transferase 1 (Fdft1) RNA expression (8 h): 0.32 fold-change; farnesyl diphosphate synthetase (Fdps) RNA expression (8 h): 0.16 fold-change; isopentenyl-diphosphate delta isomerase (Idi1) RNA expression (8 h): 0.12 fold-change; lanosterol synthase (Lss) RNA expression (8 h): 0.28 fold-change; mevalonate (diphospho) decarboxylase (Mvd) RNA expression (8 h): 0.19 fold-change; mevalonate kinase (Mvk) RNA expression (8 h): 0.37 fold-change; phosphomevalonate kinase (Pmvk) RNA expression (8 h): 0.41 fold-change; squalene epoxidase (Sqle) RNA expression (8 h): 0.16 fold-change; sterol-C4-methyl oxidase-like (Sc4mol) RNA expression (8 h): 0.11 fold-change; sterol-C5-desaturase (fungal ERG3, delta-5-desaturase) homolog (S. cerevisae) (Sc5d) RNA expression (8 h): 0.54 fold-change
N#Cc1nc(C(=O)NCC(=O)O)c(O)c2ccn(Cc3ccc4ccccc4c3)c12 [Compound J, [(7-Cyano-4-hydroxy-1-naphthalen-2-ylmethyl-1H-pyrrolo[2,3-c]pyridine-5-carbonyl)-amino]-acetic acid] | 0.38 fold-change | 0.28 fold-change | 0.52 fold-change | 0.42 fold-change | 0.58 fold-change | 0.38 fold-change | 0.70 fold-change | 0.38 fold-change | 0.25 fold-change | 0.77 fold-change | 0.72 fold-change | 0.79 fold-change | 0.59 fold-change | 0.26 fold-change | 0.27 fold-change | 1.22 fold-change | 0.43 fold-change | 0.92 fold-change | 0.94 fold-change | 1.03 fold-change | acetyl-Coenzyme A acetyltransferase 2 (Acat2) RNA expression (8 h): 0.91 fold-change; cytochrome P450, family 51 (Cyp51) RNA expression (8 h): 0.80 fold-change; farnesyl diphosphate farnesyl transferase 1 (Fdft1) RNA expression (8 h): 0.66 fold-change; farnesyl diphosphate synthetase (Fdps) RNA expression (8 h): 0.66 fold-change; isopentenyl-diphosphate delta isomerase (Idi1) RNA expression (8 h): 0.70 fold-change; lanosterol synthase (Lss) RNA expression (8 h): 0.76 fold-change; mevalonate (diphospho) decarboxylase (Mvd) RNA expression (8 h): 0.83 fold-change; mevalonate kinase (Mvk) RNA expression (8 h): 0.79 fold-change; phosphomevalonate kinase (Pmvk) RNA expression (8 h): 0.84 fold-change; squalene epoxidase (Sqle) RNA expression (8 h): 1.03 fold-change; sterol-C4-methyl oxidase-like (Sc4mol) RNA expression (8 h): 0.52 fold-change; sterol-C5-desaturase (fungal ERG3, delta-5-desaturase) homolog (S. cerevisae) (Sc5d) RNA expression (8 h): 0.81 fold-change
